Test results from PubChem BioAssay (NCI).
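How tested: cells in 96-well plates exposed to compound for 48 hours at five concentrations. TGI: total growth inhibition.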

Columns and labels:
Experiment in all cases: DTP human tumour cell line panel, 48 h
K-562 leukemia = tested on: K-562 leukemia
TK-10 renal = tested on: TK-10 renal
HS 578T breast = tested on: HS 578T breast
SK-OV-3 ovarian = tested on: SK-OV-3 ovarian
IGROV1 ovarian = tested on: IGROV1 ovarian
UACC-62 melanoma = tested on: UACC-62 melanoma
UACC-257 melanoma = tested on: UACC-257 melanoma
CCRF-CEM leukemia = tested on: CCRF-CEM leukemia
SF-539 CNS = tested on: SF-539 CNS
HOP-62 NSCLC = tested on: HOP-62 NSCLC
SF-295 CNS = tested on: SF-295 CNS
EKVX NSCLC = tested on: EKVX NSCLC
SK-MEL-28 melanoma = tested on: SK-MEL-28 melanoma
NCI/ADR-RES ovarian = tested on: NCI/ADR-RES ovarian
COLO 205 colon = tested on: COLO 205 colon
A549 NSCLC = tested on: A549 NSCLC
A498 renal = tested on: A498 renal
MOLT-4 leukemia = tested on: MOLT-4 leukemia
HCT-116 colon = tested on: HCT-116 colon
SNB-19 CNS = tested on: SNB-19 CNS
MDA-MB-435 = tested on: MDA-MB-435
SF-268 CNS = tested on: SF-268 CNS
NCI-H460 lung = tested on: NCI-H460 lung
SN12C renal = tested on: SN12C renal
HCC-2998 colon = tested on: HCC-2998 colon
HT29 colon = tested on: HT29 colon
HL-60(TB) leukemia = tested on: HL-60(TB) leukemia
RPMI-8226 leukemia = tested on: RPMI-8226 leukemia
HCT-15 colon = tested on: HCT-15 colon
SK-MEL-5 melanoma = tested on: SK-MEL-5 melanoma
M14 melanoma = tested on: M14 melanoma
PC-3 prostate = tested on: PC-3 prostate
MDA-MB-231 breast = tested on: MDA-MB-231 breast
NCI-H522 lung = tested on: NCI-H522 lung
SK-MEL-2 melanoma = tested on: SK-MEL-2 melanoma
RXF 393 renal = tested on: RXF 393 renal
MDA-N = tested on: MDA-N
CAKI-1 renal = tested on: CAKI-1 renal
SNB-75 CNS = tested on: SNB-75 CNS
OVCAR-3 ovarian = tested on: OVCAR-3 ovarian
SR leukemia = tested on: SR leukemia
MALME-3M melanoma = tested on: MALME-3M melanoma
NCI-H226 lung = tested on: NCI-H226 lung
DU-145 prostate = tested on: DU-145 prostate
BT-549 breast = tested on: BT-549 breast
OVCAR-4 ovarian = tested on: OVCAR-4 ovarian
KM12 colon = tested on: KM12 colon
U251 CNS = tested on: U251 CNS
SW-620 colon = tested on: SW-620 colon
ACHN renal = tested on: ACHN renal
NCI-H23 lung = tested on: NCI-H23 lung
UO-31 renal = tested on: UO-31 renal
MCF7 breast = tested on: MCF7 breast
LOX IMVI melanoma = tested on: LOX IMVI melanoma
786-0 renal = tested on: 786-0 renal
HOP-92 NSCLC = tested on: HOP-92 NSCLC
T-47D breast = tested on: T-47D breast
OVCAR-5 ovarian = tested on: OVCAR-5 ovarian
OVCAR-8 ovarian = tested on: OVCAR-8 ovarian

CCOC(=O)C1=C(Cl)c2cccnc2C1=O
TGI (K-562 leukemia): > 100 µM
TGI (TK-10 renal): > 100 µM
TGI (HS 578T breast): 77 µM
TGI (SK-OV-3 ovarian): > 100 µM
TGI (IGROV1 ovarian): > 100 µM
TGI (UACC-62 melanoma): > 100 µM
TGI (UACC-257 melanoma): > 100 µM
TGI (CCRF-CEM leukemia): > 100 µM
TGI (SF-539 CNS): > 100 µM
TGI (HOP-62 NSCLC): > 100 µM
TGI (SF-295 CNS): > 100 µM
TGI (EKVX NSCLC): > 100 µM
TGI (SK-MEL-28 melanoma): > 100 µM
TGI (NCI/ADR-RES ovarian): > 100 µM
TGI (COLO 205 colon): > 100 µM
TGI (A549 NSCLC): > 100 µM
TGI (A498 renal): > 100 µM
TGI (MOLT-4 leukemia): > 100 µM
TGI (HCT-116 colon): > 100 µM
TGI (SNB-19 CNS): > 100 µM
TGI (MDA-MB-435): 64.7 µM
TGI (SF-268 CNS): > 100 µM
TGI (NCI-H460 lung): > 100 µM
TGI (SN12C renal): > 100 µM
TGI (HCC-2998 colon): > 100 µM
TGI (HT29 colon): > 100 µM
TGI (HL-60(TB) leukemia): > 100 µM
TGI (RPMI-8226 leukemia): > 100 µM
TGI (HCT-15 colon): > 100 µM
TGI (SK-MEL-5 melanoma): > 100 µM
TGI (M14 melanoma): > 100 µM
TGI (PC-3 prostate): > 100 µM
TGI (MDA-MB-231 breast): > 100 µM
TGI (NCI-H522 lung): > 100 µM
TGI (SK-MEL-2 melanoma): > 100 µM
TGI (RXF 393 renal): > 100 µM
TGI (MDA-N): > 100 µM
TGI (CAKI-1 renal): > 100 µM
TGI (SNB-75 CNS): 88.3 µM
TGI (OVCAR-3 ovarian): 43.7 µM
TGI (SR leukemia): 37.9 µM
TGI (MALME-3M melanoma): > 100 µM
TGI (NCI-H226 lung): > 100 µM
TGI (DU-145 prostate): 55.6 µM
TGI (BT-549 breast): > 100 µM
TGI (OVCAR-4 ovarian): > 100 µM
TGI (KM12 colon): > 100 µM
TGI (U251 CNS): > 100 µM
TGI (SW-620 colon): > 100 µM
TGI (ACHN renal): > 100 µM
TGI (NCI-H23 lung): 31.6 µM
TGI (UO-31 renal): > 100 µM
TGI (MCF7 breast): > 100 µM
TGI (LOX IMVI melanoma): 72.7 µM
TGI (786-0 renal): > 100 µM
TGI (HOP-92 NSCLC): > 100 µM

Cc1cc2c(s1)C(N)CC2=O (configuration not stated)
TGI (K-562 leukemia): > 100 µM
TGI (TK-10 renal): > 100 µM
TGI (SK-OV-3 ovarian): > 100 µM
TGI (IGROV1 ovarian): > 100 µM
TGI (UACC-62 melanoma): > 100 µM
TGI (UACC-257 melanoma): > 100 µM
TGI (CCRF-CEM leukemia): > 100 µM
TGI (T-47D breast): > 100 µM
TGI (SF-539 CNS): > 100 µM
TGI (HOP-62 NSCLC): > 100 µM
TGI (EKVX NSCLC): > 100 µM
TGI (SK-MEL-28 melanoma): > 100 µM
TGI (NCI/ADR-RES ovarian): > 100 µM
TGI (COLO 205 colon): > 100 µM
TGI (A549 NSCLC): > 100 µM
TGI (A498 renal): > 100 µM
TGI (MOLT-4 leukemia): > 100 µM
TGI (HCT-116 colon): > 100 µM
TGI (SNB-19 CNS): > 100 µM
TGI (MDA-MB-435): > 100 µM
TGI (SF-268 CNS): > 100 µM
TGI (NCI-H460 lung): > 100 µM
TGI (SN12C renal): > 100 µM
TGI (OVCAR-5 ovarian): > 100 µM
TGI (HCC-2998 colon): > 100 µM
TGI (HT29 colon): > 100 µM
TGI (HL-60(TB) leukemia): > 100 µM
TGI (RPMI-8226 leukemia): > 100 µM
TGI (HCT-15 colon): > 100 µM
TGI (SK-MEL-5 melanoma): > 100 µM
TGI (OVCAR-8 ovarian): > 100 µM
TGI (M14 melanoma): > 100 µM
TGI (PC-3 prostate): > 100 µM
TGI (MDA-MB-231 breast): > 100 µM
TGI (SK-MEL-2 melanoma): > 100 µM
TGI (RXF 393 renal): > 100 µM
TGI (MDA-N): > 100 µM
TGI (CAKI-1 renal): > 100 µM
TGI (SNB-75 CNS): > 100 µM
TGI (OVCAR-3 ovarian): > 100 µM
TGI (SR leukemia): > 100 µM
TGI (MALME-3M melanoma): > 100 µM
TGI (DU-145 prostate): > 100 µM
TGI (BT-549 breast): > 100 µM
TGI (KM12 colon): > 100 µM
TGI (U251 CNS): > 100 µM
TGI (SW-620 colon): > 100 µM
TGI (ACHN renal): > 100 µM
TGI (UO-31 renal): > 100 µM
TGI (MCF7 breast): > 100 µM
TGI (786-0 renal): > 100 µM
